Test results published in ChEMBL document CHEMBL1123618, “alpha,alpha-Difluoro-beta-aminodeoxystatine-containing renin inhibitory peptides” (J Med Chem, 1987).

target: T1, Renin (Homo sapiens, UniProt P00797); test: Inhibitory activity against human plasma renin.; type: cell-free
T1 sequence (P00797 whole entry): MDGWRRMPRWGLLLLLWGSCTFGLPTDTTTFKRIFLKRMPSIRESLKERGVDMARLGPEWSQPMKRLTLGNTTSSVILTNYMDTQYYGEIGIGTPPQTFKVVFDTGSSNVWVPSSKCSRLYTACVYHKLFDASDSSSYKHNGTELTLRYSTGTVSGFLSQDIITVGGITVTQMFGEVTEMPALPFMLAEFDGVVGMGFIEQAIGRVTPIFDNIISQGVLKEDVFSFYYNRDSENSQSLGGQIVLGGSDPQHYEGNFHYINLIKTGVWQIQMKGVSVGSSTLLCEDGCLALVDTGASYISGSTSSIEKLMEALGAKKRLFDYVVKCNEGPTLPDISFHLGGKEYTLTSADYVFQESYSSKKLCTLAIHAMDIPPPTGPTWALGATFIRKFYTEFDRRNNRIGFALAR

| IC50 [nM] | Structure (SMILES) |
| --- | --- |
| 330 | CC[C@H](C)[C@H](NC(=O)C[C@@H](O)[C@H](CC(C)C)NC(=O)[C@H](Cc1c[nH]cn1)NC(=O)[C@H](Cc1ccccc1)NC(=O)OC(C)(C)C)C(=O)NCc1ccccn1 |
| 2800 | CC[C@H](C)[C@H](NC(=O)C(F)(F)[C@@H](N)[C@H](CC(C)C)NC(=O)[C@H](Cc1cnc[nH]1)NC(=O)[C@H](Cc1ccccc1)NC(=O)OC(C)(C)C)C(=O)NCc1ccccn1 |
| 340 | CC[C@H](C)[C@H](NC(=O)C(F)(F)[C@H](N)[C@H](CC(C)C)NC(=O)[C@H](Cc1cnc[nH]1)NC(=O)[C@H](Cc1ccccc1)NC(=O)OC(C)(C)C)C(=O)NCc1ccccn1 |
| 15 | CC[C@H](C)[C@H](NC(=O)C[C@H](N)[C@H](CC(C)C)NC(=O)[C@H](Cc1c[nH]cn1)NC(=O)[C@H](Cc1ccccc1)NC(=O)OC(C)(C)C)C(=O)NCc1ccccn1 |
| 480 | CC[C@H](C)[C@H](NC(=O)C[C@@H](N)[C@H](CC(C)C)NC(=O)[C@H](Cc1c[nH]cn1)NC(=O)[C@H](Cc1ccccc1)NC(=O)OC(C)(C)C)C(=O)NCc1ccccn1 |
